Experimental data taken from a melting point compilation (Tetko et al.).

| Compound | melting point |
| --- | --- |
| O=C(O)C=Cc1cn(-c2ccccc2)nc1-c1ccc(F)cc1 | 229 to 231 °C |
| CCCNc1ccc(S(N)(=O)=O)cc1N | 104 to 106 °C |
| CCOCCCNC(=O)CCl | 25 to 27 °C |
| CCc1nnc(-c2cccc(N)c2)o1 | 88 to 90 °C |
| CC(C)(C)OC(=O)N1CCCC(C#N)C1 (configuration not stated) | 64 to 66 °C |
| Cn1ccnc1SCC(=O)Nc1cc(C(=O)O)ccc1Cl | 223 to 225 °C |
| Nc1nnc(CC(F)(F)F)o1 | 132 to 134 °C |
| CC(C)NS(=O)(=O)c1ccccc1CN | 79 to 81 °C |
| Cc1c(C(=O)O)cc([N+](=O)[O-])c(C)c1[N+](=O)[O-] | 201 to 203 °C |
| COc1ccc(-n2c(S)nnc2-c2ccncc2)cc1 | 242 to 244 °C |
| CC(C)(C#N)S(=O)(=O)c1ccc(Br)cc1 | 118 to 120 °C |
| CCOc1ccc(-c2nc(CO)cs2)cc1 | 107 to 109 °C |
| Cc1ccc(S(=O)(=O)N2CCCCC2C)cc1C(=O)O (configuration not stated) | 149 to 151 °C |
| NC(=O)C1COCCN1 (configuration not stated) | 168 to 170 °C |
| Cc1cc(C(C)(C)C)cc(C)c1CC#N | 84 to 86 °C |
| Cn1ccnc1CN1CCC(C(=O)O)CC1 | 173 to 175 °C |
| O=C(O)CNC(=O)c1ccncc1 | 230 to 232 °C |
| CC(=CC(=O)O)c1ccccc1C | 81 to 83 °C |
| CC(C)Cn1c(S)nc2cc(Cl)ccc2c1=O | 221 to 223 °C |
| O=C(c1ccc(Br)cc1)N1CCc2ccccc21 | 123 to 125 °C |
| Cc1ccccc1C1CNC(=O)C1 (configuration not stated) | 115 to 117 °C |
| CCOC(=O)c1c(N)sc(C)c1CC(C)CC (configuration not stated) | 77 to 79 °C |
| C=CC(=O)Nc1ccc(OCC)c(CO)c1 | 129 to 131 °C |
| COc1ccccc1C=NO | 86 to 88 °C |

| Compound | melting point |
| --- | --- |
| CCOC(=O)c1c(NC(=O)CCl)sc(C(C)=O)c1C | 176 to 178 °C |
| CC(=NO)c1ccc(S(=O)(=O)N(C)C)cc1 | 108 to 110 °C |
| NC(=O)c1cccc(OCC(=O)O)c1 | 206 to 208 °C |
| CC1(C)NC(=O)N=C1N | 259 to 261 °C |
| COc1cc2nc(C)oc(=O)c2cc1OC | 187 to 189 °C |
| Cc1c(N)cc(C#N)cc1F | 135 to 137 °C |
| Nc1cnn(CC(=O)NC2CCCC2)c1 | 108 to 110 °C |
| CCCCC1NCCNC1=O (configuration not stated) | 67 to 69 °C |
| O=C1NC(=O)C(F)(F)c2ccccc21 | 109 to 111 °C |
| CC(Sc1ncccc1C(=O)O)C(=O)N1CCCC1 (configuration not stated) | 192 to 194 °C |
| COc1ccc2[nH]c3c(c2c1)C(=O)CCC3 | 269 to 271 °C |
| NS(=O)(=O)c1ccc2c(c1)NCCC2 | 164 to 166 °C |
| Fc1ccc(-c2cc(CBr)on2)cc1 | 74 to 76 °C |
| NCc1nnc2n1CCCCC2 | 70 to 72 °C |
| O=Cc1cnc(N2CCOCC2)s1 | 163 to 165 °C |
| NCCc1cc2ccccc2[nH]1 | 95 to 97 °C |
| CC(C)(C)OC(=O)N1CCc2c(sc(N)c2C#N)C1 | 202 to 204 °C |
| Cn1c(C(=O)O)c(Br)c2ccccc21 | 204 to 206 °C |
| O=C1CC(=O)N(c2cccnc2)C(=S)N1 | 229 to 231 °C |
| NC(=O)C1Cc2cc(S(N)(=O)=O)ccc2O1 (configuration not stated) | 223 to 225 °C |
| O=[N+]([O-])c1ccc(Cl)cc1CBr | 61 to 63 °C |
| O=C(Nc1nnc(C2CCCCC2)s1)OCC(F)(F)F | 182 to 184 °C |
| O=C(Nc1ccc(Cl)cc1)Nc1ccccc1Br | 222 to 224 °C |
| CC(=Cc1cccc(Cl)c1)C(=O)O | 99 to 101 °C |

| Compound | melting point |
| --- | --- |
| O=[N+]([O-])c1ccc(S(=O)(=O)CCO)cc1 | 128 to 130 °C |
| CC(=O)Nc1cc(S(=O)(=O)Cl)ccc1F | 161 to 163 °C |
| Cc1nonc1C(=O)O | 69 to 71 °C |
| O=C(O)c1ccn(-c2ccccc2)n1 | 138 to 140 °C |
| COc1ccc(C(C)=O)c2ccccc12 | 64 to 66 °C |
| O=C(O)c1cc2ccc(OC(F)(F)F)cc2[nH]1 | 160 to 162 °C |
| O=C(O)CN1C(=O)COc2cc(Br)ccc21 | 234 to 236 °C |
| COc1ccccc1NC(=O)c1ccc(NC(=O)CCl)cc1 | 103 to 106 °C |
| NNS(=O)(=O)c1ccc(Cl)c([N+](=O)[O-])c1 | 126 to 128 °C |
| COc1ccccc1Nc1ccc([N+](=O)[O-])cc1N | 149 to 151 °C |
| CN(C)c1ccc([N+](=O)[O-])c(O)c1 | 140 to 142 °C |
| COc1ccc(S(=O)(=O)NC(C)(C)C)cc1N | 119 to 121 °C |
| CC1(c2ccc(F)cc2)NC(=O)NC1=O (configuration not stated) | 204 to 206 °C |
| COc1ccc(NS(=O)(=O)c2ccc(C)c(N)c2)cc1 | 127 to 129 °C |
| Nc1nc2cc3c(cc2s1)OCCCO3 | 218 to 220 °C |
| Cc1cc(F)cc(C(=O)O)c1N | 191 to 193 °C |
| CC(=O)N(C)c1nc(C=O)cs1 | 164 to 166 °C |
| Oc1nc(O)c2c(n1)CCC2 | 324 to 326 °C |
| O=S1(=O)CCC(CO)CC1 | 86 to 88 °C |
| COc1cc(SC#N)ccc1O | 78 to 80 °C |
| NNC(=O)Cc1nc2ccccc2[nH]1 | 177 to 181 °C |
| Cc1ccc(Cl)c(S(=O)(=O)Cl)c1 | 49 to 51 °C |
| CCN(CC)C(=O)c1ccc(N)cc1 | 118 to 120 °C |
| CCN1CCN(c2ccc(C(C)=O)cc2F)CC1 | 68 to 70 °C |

| Compound | melting point |
| --- | --- |
| NC(=O)c1cnn(-c2ccccc2)c1N | 167 to 170 °C |
| CCNC(=O)c1ccc(Cl)nc1 | 136 to 138 °C |
| CCc1ccc2c(CCl)cc(=O)oc2c1 | 138 to 140 °C |
| Cc1ccc(S(=O)(=O)N2CCC(C(=O)O)CC2)c(C)c1 | 200 to 202 °C |
| N#Cc1ccc(S(=O)(=O)Cl)c(F)c1 | 61 to 63 °C |
| O=[N+]([O-])c1ccc(F)c([N+](=O)[O-])c1F | 37 to 39 °C |
| Clc1nc(-c2ccccn2)nc2c1CCC2 | 142 to 144 °C |
| NCc1ccc(N2CCC(CO)CC2)cc1 | 138 to 140 °C |
| CC(=O)c1ccc(S(C)=O)cc1 (configuration not stated) | 105 to 107 °C |
| CC(=O)Nc1ncc(-c2ccc(O)cc2)s1 | 218 to 220 °C |
| O=Cc1cc(Cl)ccc1OCc1cccnc1 | 79 to 81 °C |
| O=C(O)CCOc1ccccc1Br | 111 to 113 °C |
| CCOC(=O)CC(=O)CN1C(=O)c2ccccc2S1(=O)=O | 104 to 106 °C |
| Cc1nc2c(cnn2-c2cccc(Cl)c2)c(=O)[nH]1 | 114 to 116 °C |
| Cc1nc2ccccc2c(=O)n1-c1ccc(C(=O)O)cc1 | 220 to 222 °C |
| O=C(O)C=Cc1cscn1 | 174 to 176 °C |
| CN1C(=O)N(CC(=O)O)C(=O)C12CCCCC2 | 220 to 222 °C |
| CCc1cc2c(=O)[nH]cnc2s1 | 183 to 185 °C |
| O=C(O)c1cccc(S(=O)(=O)N2CCCCC2)c1 | 178 to 180 °C |
| COc1ccccc1-c1cc(N)[nH]n1 | 94 to 96 °C |
| O=C(CCN1CCOCC1)c1cc2ccccc2o1 | 53 to 55 °C |
| COc1ccc(OC)c(C(F)(F)C(=O)O)c1 | 81 to 83 °C |
| Nc1ccc(Oc2cc(Cl)ccc2Cl)c(F)c1 | 62 to 64 °C |
| Cc1oc(C(=O)O)cc1S(=O)(=O)Cl | 114 to 116 °C |

| Compound | melting point |
| --- | --- |
| O=C(c1ccc(F)cc1)N1CCCCC(Cl)C1=O (configuration not stated) | 143 to 145 °C |
| Cc1nc2cc(=O)[nH]n2c(C)c1CC(=O)O | 285 to 287 °C |
| O=C(O)c1cc(O)cc(OCC(F)(F)F)c1 | 165 to 167 °C |
| COC(=O)/C=C/c1ccc(OC)c(S(=O)(=O)Cl)c1 | 115 to 117 °C |
| O=C(O)CNc1ncccn1 | 169 to 171 °C |
| COc1ccc(S(=O)(=O)NC2CC2)cc1N | 119 to 121 °C |
| CCN1CCN(C(=O)c2ccc(N)cc2)CC1 | 125 to 127 °C |
| COc1cc(OC)cc(C(=O)Nc2ccc(C(=O)O)c(O)c2)c1 | 219 to 221 °C |
| NC(=O)c1ccsc1NC(=O)CCl | 148 to 150 °C |
| CC(C)(C)Cc1nc2cc(N)ccc2o1 | 83 to 85 °C |
| Cc1nccn1-c1cccc(F)n1 | 97 to 99 °C |
| O=C(O)CCCCCNC(=O)NC1CCCCC1 | 138 to 140 °C |
| O=C(O)c1cnn2c1NCCC2 | 141 to 143 °C |
| O=c1[nH]c(-c2ccccc2)no1 | 184 to 186 °C |
| CC(C)(C)OC(=O)N1CCC(NC(N)=O)CC1 | 217 to 219 °C |
| CCc1cc(O)ncc1Br | 109 to 111 °C |
| CC(N)c1ccc(-c2ccncc2)cc1 (configuration not stated) | 87 to 89 °C |
| O=C(O)c1ccccc1NS(=O)(=O)c1cccc([N+](=O)[O-])c1 | 185 to 187 °C |
| CSc1ccc(-c2nc(=N)s[nH]2)cc1 | 189 to 191 °C |
| Cc1ccc(C(=O)O)cc1NC(=O)c1ccco1 | 230 to 232 °C |
| CC(=O)NCCc1ccc(S(N)(=O)=O)s1 | 144 to 146 °C |
| Cc1cccc(CNc2ccc3[nH]c(=O)[nH]c3c2)c1 | 216 to 218 °C |
| O=Cc1c[nH]nc1-c1ccc(Cl)cc1 | 139 to 141 °C |
| COC(=O)C(=O)Nc1ccc(C)cc1 | 147 to 149 °C |

| Compound | melting point |
| --- | --- |
| Cc1nc(CCC(=O)O)oc1-c1ccc(Br)cc1 | 179 to 181 °C |
| Cc1nc2ccccc2nc1Br | 102 to 104 °C |
| NCc1noc(-c2ccco2)n1 | 143 to 145 °C |
| Nc1ncc(C(=O)O)cc1Cl | 338 to 340 °C |
| O=C(NC1(C(=O)O)CCCC1)c1ccc2[nH]ncc2c1 | 285 to 287 °C |
| Cc1nc(-c2ccncc2)nc(O)c1C | 256 to 258 °C |
| COC(=O)c1cc(Cl)c(=O)[nH]c1C | 239 to 241 °C |
| CC(C)S(=O)(=O)Nc1cccc(O)c1 | 123 to 125 °C |
| Fc1ccc2nc(S)n(-c3ccccc3F)c2c1 | 220 to 222 °C |
| O=C(NC1CCN(Cc2ccccc2)CC1)c1ccco1 | 158 to 160 °C |
| Cc1cnc2ccccc2c1Cl | 57 to 59 °C |
| O=c1c2c([nH]c3ccc(Oc4ccccc4)cc13)CCCC2 | 319 to 321 °C |
| Cc1ccc(CN)cn1 | 59 to 61 °C |
| O=c1[nH]ccn(C2CC2)c1=O | 161 to 163 °C |
| NC(=S)Nc1ccc(OC(F)(F)F)cc1 | 136 to 138 °C |
| Cc1cc(OCC(=O)O)ccc1Cl | 180 to 182 °C |
| Cc1ccc(N)c(-c2nc(C3CC3)n[nH]2)c1 | 205 to 207 °C |
| CC(=O)c1cccc(S(=O)(=O)N2CCC(C(=O)O)CC2)c1 | 122 to 124 °C |
| CNC(=O)c1ccc(C)c(N)c1 | 167 to 169 °C |
| CC1CC(C)CN(S(=O)(=O)c2ccc(S(=O)(=O)Cl)cc2)C1 (configuration not stated) | 153 to 155 °C |
| CN(C)C(=O)c1ccc(Cl)cc1N | 65 to 67 °C |
| CC1(c2c(F)cccc2F)NC(=O)NC1=O (configuration not stated) | 215 to 217 °C |
